Consider 13 compounds from paper PMC11450120, “One-pot synthesis, characterization and antiviral properties of new benzenesulfonamide-based spirothiazolidinones” (Molecular Diversity, 2024).

The test system of data set [1] is influenza A/H3N2 (A/HK/7/87) virus. The experiment in a line: Influenza virus CPE reduction assay in MDCK cells, A/H3N2. The format is cell-based.
Data set [2] relates to influenza A/H1N1 (A/Virginia/ATCC3/2009) virus. Nature of the data set: Influenza virus CPE reduction assay in MDCK cells, A/H1N1. The data set is classed as cell-based.
Another data set in a line: in vitro. To be noted: dog.
Data set [3] has as its system influenza B virus (B/Ned/537/05). The experiment in a line: Influenza virus CPE reduction assay in MDCK cells, influenza B. The data set is classed as cell-based. To be noted: read-out: Antiviral EC50 Influenza B Microscopy.
Data set [4] relates to Madin-Darby canine kidney (MDCK) cells. To be noted: for cytotoxicity at the highest concentration tested: at 100 μM.
Setting [5] is: Influenza A virus, H3N2, 96 h, CPE by microscopic scoring, 4 days at 35 °C, read-out: Antiviral EC50 Influenza A/H3N2 Microscopy.
Where [6] appears, read: Influenza A virus, H3N2, 96 h, MTS cell viability assay, 4 days at 35 °C, read-out: Antiviral EC50 Influenza A/H3N2 MTS.
The mark [7] stands for this setting: Influenza A virus, 96 h, CPE by microscopic scoring, 4 days at 35 °C, read-out: Antiviral EC50 Influenza A/H1N1 Microscopy.
Setting [8] is: Influenza A virus, 96 h, MTS cell viability assay, 4 days at 35 °C, read-out: Antiviral EC50 Influenza A/H1N1 MTS.
[9] abbreviates: Influenza B virus, 96 h, CPE by microscopic scoring, 4 days at 35 °C.
[10] abbreviates: Influenza A virus, read-out: EC50 against influenza A/H1N1 virus (range over microscopy and MTS).

The melting point is the temperature of the solid-liquid transition.

Read-outs that look alike come from different tables or passages of the source.

For `COc1cc(S(N)(=O)=O)ccc1C(=O)NN1C(=O)C(C)SC12CCC(C(F)(F)F)CC2` (stereo not drawn) [3 g, 2-Methoxy-N-(2-methyl-3-oxo-1-thia-8-trifluoromethyl-4-azaspiro[4.5]decan-4-yl)-4-sulfamoylbenzamide], the melting point was in the range of 210 to 214 °C. In data set [1] (setting [5]), the EC50 is over 100000 nM. Also, the EC50 in data set [1] (setting [6]) is over 100000 nM. In addition, in data set [2] (setting [7]), the EC50 was over 100000 nM. Further, the EC50 in data set [2] (setting [8]) is over 100000 nM. For the same compound, in “in vitro”, the CC50 is over 100 µM. For the same compound, in data set [3] (setting [9]), the EC50 is over 100000 nM. Besides, in data set [4] (dog), the “Cytotoxicity MCC (minimal cytotoxic concentration)” value (“Cytotoxicity MCC” below) is 100 µM.

Regarding `COc1cc(S(N)(=O)=O)ccc1C(=O)NN1C(=O)C(C)SC12CCC(c1ccccc1)CC2` (stereo not drawn) [3 h, 2-Methoxy-N-(2-methyl-3-oxo-8-phenyl-1-thia-4-azaspiro[4.5]decan-4-yl)-4-sulfamoylbenzamide], the melting point was 290 to 292 °C. In addition, the EC50 in data set [1] (setting [5]) is over 100000 nM. In data set [1] (setting [6]), the EC50 is over 100000 nM. The EC50 in data set [2] (setting [7]) is over 100000 nM. Besides, in data set [2] (setting [8]), the EC50 was over 100000 nM. In the data set “in vitro”, this compound registered a CC50 of over 100 µM. The EC50 in data set [3] (setting [9]) is over 100000 nM. For the same compound, the “Cytotoxicity MCC” value in data set [4] (dog) is on record as 100 µM.

On to `O=C1c2c(O)c(=O)ccn2N([C@@H]2c3ccccc3SCc3c2ccc(F)c3F)[C@@H]2COCCN12` [BXA, baloxavir acid, reference compound], for which the EC50 in data set [1] (MTS assay, BXA concentration unit nM, read-out: Antiviral EC50 Influenza A/H3N2 MTS) is 1.7 nM; in data set [1] (microscopic scoring, BXA concentration unit nM, read-out: Antiviral EC50 Influenza A/H3N2 Microscopy) it was 2 nM; in data set [2] (MTS assay, BXA concentration unit nM, read-out: Antiviral EC50 Influenza A/H1N1 MTS), 1.5 nM; in data set [2] (microscopic scoring, BXA concentration unit nM, read-out: Antiviral EC50 Influenza A/H1N1 Microscopy) it was 1.8 nM; in data set [3] (microscopic scoring, BXA concentration unit nM), 8.3 nM. For the same compound, the CC50 in data set [4] was over 0.02 µM. Besides, the “Cytotoxicity MCC” value in data set [4] is over 0.02 µM.

As to `COc1cc(S(N)(=O)=O)ccc1C(=O)NN1C(=O)C(C)SC12CCCC(C)C2` (stereo not drawn) [Compound 3a, 2-Methoxy-N-(2,7-dimethyl-3-oxo-1-thia-4-azaspiro[4.5]decan-4-yl)-4-sulfamoylbenzamide], the melting point fell in the range of 261 to 264 °C. Further, in data set [1] (setting [5]), the EC50 is over 100000 nM. Further, the EC50 in data set [1] (setting [6]) amounted to 64000 nM. For the same compound, the EC50 in data set [2] (setting [7]) was over 100000 nM. The EC50 in data set [2] (setting [8]) stood at 76000 nM. The CC50 in the data set “in vitro” was over 100 µM. In addition, the EC50 in data set [3] (setting [9]) is over 100000 nM. Besides, the “Cytotoxicity MCC” value in data set [4] (dog) is on record as over 100 µM.

For `COc1cc(S(N)(=O)=O)ccc1C(=O)NN1C(=O)C(C)SC12CCC(C)CC2` (stereo not drawn) [Compound 3b, 2-Methoxy-N-(2,8-dimethyl-3-oxo-1-thia-4-azaspiro[4.5]decan-4-yl)-4-sulfamoylbenzamide], the melting point was 258 to 261 °C. For the same compound, in data set [1] (setting [5]), the EC50 is over 100000 nM. Also, the EC50 in data set [1] (setting [6]) is over 100000 nM. The EC50 in data set [2] (setting [7]) is over 100000 nM. Further, the EC50 in data set [2] (setting [8]) is over 100000 nM. The compound further came in with a CC50 in the data set “in vitro” of over 100 µM. For the same compound, in data set [3] (setting [9]), the EC50 is over 100000 nM. In data set [4] (dog), the “Cytotoxicity MCC” value is over 100 µM.

`CCC1CCC2(CC1)SC(C)C(=O)N2NC(=O)c1ccc(S(N)(=O)=O)cc1OC` (stereo not drawn) [Compound 3c, 2-Methoxy-N-(8-ethyl-2-methyl-3-oxo-1-thia-4-azaspiro[4.5]decan-4-yl)-4-sulfamoylbenzamide] yielded a melting point of 270 to 272 °C. For the same compound, the EC50 in data set [1] (setting [5]) is over 100000 nM. In addition, the EC50 in data set [1] (setting [6]) was over 100000 nM. Besides, in data set [2] (setting [7]), the EC50 is over 100000 nM. Further, in data set [2] (setting [8]), the EC50 was 80000 nM. The compound also returned a CC50 in “in vitro” of over 100 µM. Besides, the EC50 in data set [3] (setting [9]) is over 100000 nM. The “Cytotoxicity MCC” value in data set [4] (dog) is reported as 100 µM.

For `CCCC1CCC2(CC1)SC(C)C(=O)N2NC(=O)c1ccc(S(N)(=O)=O)cc1OC` (stereo not drawn) [Compound 3d, 2-Methoxy-N-(2-methyl-3-oxo-8-propyl-1-thia-4-azaspiro[4.5]decan-4-yl)-4-sulfamoylbenzamide], the melting point fell in the range of 274 to 276 °C. In data set [1] (setting [5]), the EC50 was over 100000 nM. The EC50 in data set [1] (setting [6]) was over 100000 nM. The “activity against influenza A/H1N1 virus (in words)” value in data set [2] is reported as “weak activity”. Also, in data set [2] (setting [7]), the EC50 is 45000 nM. Also, the EC50 in data set [2] (setting [8]) was 39000 nM. In addition, the EC50 in data set [2] (setting [10]) lay within 35000 to 45000 nM. Also, the CC50 in the data set “in vitro” is over 100 µM. In addition, the EC50 in data set [3] (setting [9]) was over 100000 nM. Besides, the “cytotoxicity at the highest concentration tested” value in data set [4] was “no cytotoxicity”. Moreover, the “Cytotoxicity MCC” value in data set [4] (dog) was determined as 100 µM.

In turn, `COc1cc(S(N)(=O)=O)ccc1C(=O)NN1C(=O)C(C)SC12CCC(C(C)(C)C)CC2` (stereo not drawn) [Compound 3e, 2-Methoxy-N-(2-methyl-3-oxo-8-tert-butyl-1-thia-4-azaspiro[4.5]decan-4-yl)-4-sulfamoylbenzamide] came in with a melting point of 301 to 304 °C. In addition, the EC50 in data set [1] (setting [5]) is over 100000 nM. In data set [1] (setting [6]), the EC50 amounted to 68000 nM. For the same compound, the “activity against influenza A/H1N1 virus (in words)” value in data set [2] is given as “weak activity”. Also, the EC50 in data set [2] (setting [7]) was 45000 nM. Also, in data set [2] (setting [8]), the EC50 stood at 35000 nM. For the same compound, the EC50 in data set [2] (setting [10]) fell in the range of 35000 to 45000 nM. In the data set “in vitro”, the CC50 is over 100 µM. Further, the EC50 in data set [3] (setting [9]) was over 100000 nM. In addition, in data set [4], the “cytotoxicity at the highest concentration tested” value is listed as “no cytotoxicity”. Also, in data set [4] (dog), the “Cytotoxicity MCC” value is reported as over 100 µM.

Compound `CCC(C)(C)C1CCC2(CC1)SC(C)C(=O)N2NC(=O)c1ccc(S(N)(=O)=O)cc1OC` (stereo not drawn) [Compound 3f, 2-Methoxy-N-(2-methyl-3-oxo-8-tert-pentyl-1-thia-4-azaspiro[4.5]decan-4-yl)-4-sulfamoylbenzamide] displayed a melting point of 290 to 295 °C. Moreover, the EC50 in data set [1] (setting [5]) was over 100000 nM. Moreover, the EC50 in data set [1] (setting [6]) is over 100000 nM. Also, the EC50 in data set [2] (setting [7]) is over 100000 nM. In addition, in data set [2] (setting [8]), the EC50 is over 100000 nM. Moreover, the CC50 in the data set “in vitro” is over 100 µM. For the same compound, the EC50 in data set [3] (setting [9]) was over 100000 nM. Further, the “Cytotoxicity MCC” value in data set [4] (dog) is reported as over 100 µM.

In turn, `COc1cc(S(N)(=O)=O)ccc1C(=O)NN1C(=O)C(C)SC12CCC(C#N)(c1ccccc1)CC2` (stereo not drawn) [Compound 3i, 2-Methoxy-N-(8-cyano-2-methyl-3-oxo-8-phenyl-1-thia-4-azaspiro[4.5]decan-4-yl)-4-sulfamoylbenzamide] gave a melting point of 265 to 270 °C. Further, in data set [1] (setting [5]), the EC50 was over 100000 nM. In data set [1] (setting [6]), the EC50 was over 100000 nM. Further, the EC50 in data set [2] (setting [7]) is over 100000 nM. For the same compound, the EC50 in data set [2] (setting [8]) amounted to 74000 nM. Besides, the CC50 in the data set “in vitro” is over 100 µM. Further, the EC50 in data set [3] (setting [9]) was over 100000 nM. For the same compound, the “Cytotoxicity MCC” value in data set [4] (dog) is reported as over 100 µM.

For the compound `COc1cc(S(N)(=O)=O)ccc1C(=O)NN1C(=O)C(C)SC12CCC(NC(C)=O)CC2` (stereo not drawn) [Compound 3j, 2-Methoxy-N-(8-acetamido-2-methyl-3-oxo-1-thia-4-azaspiro[4.5]decan-4-yl)-4-sulfamoylbenzamide], the EC50 in data set [1] (setting [5]), in data set [1] (setting [6]), in data set [2] (setting [7]), in data set [2] (setting [8]) and in data set [3] (setting [9]) was over 100000 nM each time. The CC50 in the data set “in vitro” was over 100 µM. Besides, the “Cytotoxicity MCC” value in data set [4] (dog) is over 100 µM.

Consider `NC(=O)c1ncn([C@@H]2O[C@H](CO)[C@@H](O)[C@H]2O)n1` [Ribavirin, reference compound], for which the EC50 in data set [1] (setting [5]) worked out at 40000 nM; in data set [1] (setting [6]), 26000 nM; in data set [2] (setting [7]), 45000 nM; in data set [2] (setting [8]), 25000 nM; in data set [3] (setting [9]), 10000 nM. In addition, in the data set “in vitro”, the CC50 is over 100 µM.

Turning to `CC(=O)N[C@H]1[C@H]([C@H](O)[C@H](O)CO)OC(C(=O)O)=C[C@@H]1N=C(N)N` [Zanamivir, reference compound], the EC50 in data set [1] (setting [5]) was under 800 nM; in data set [1] (setting [6]), under 800 nM; in data set [2] (setting [7]), over 100000 nM; in data set [2] (setting [8]) it was over 100000 nM; in data set [3] (setting [9]), under 800 nM. This compound came in with a CC50 in “in vitro” of over 100 µM. Further, the “Cytotoxicity MCC” value in data set [4] (dog) is recorded as over 100 µM.
